Assay results from patent publication US11414429B2, “Compound or pharmaceutically acceptable salt thereof” (RIKEN, priority 2016, dated 2022).

Tests used:
tankyrase 2 (TNKS 2) = biological target: T1, tankyrase 2 (TNKS 2) (Homo sapiens, UniProt Q9H2K2); assay: Tankyrase inhibitory activity test (ELISA, self-polyADP ribosylation), tankyrase 2; assay type: biochemical; details: tankyrase 2, ELISA, self-polyADP ribosylation; read-out: TNKS2 inhibitory activity (IC50 class)
T1 construct: 613-1, 116aa; made in house; host or cells: cell-free protein synthesis system
T1 sequence (Q9H2K2 613-1166): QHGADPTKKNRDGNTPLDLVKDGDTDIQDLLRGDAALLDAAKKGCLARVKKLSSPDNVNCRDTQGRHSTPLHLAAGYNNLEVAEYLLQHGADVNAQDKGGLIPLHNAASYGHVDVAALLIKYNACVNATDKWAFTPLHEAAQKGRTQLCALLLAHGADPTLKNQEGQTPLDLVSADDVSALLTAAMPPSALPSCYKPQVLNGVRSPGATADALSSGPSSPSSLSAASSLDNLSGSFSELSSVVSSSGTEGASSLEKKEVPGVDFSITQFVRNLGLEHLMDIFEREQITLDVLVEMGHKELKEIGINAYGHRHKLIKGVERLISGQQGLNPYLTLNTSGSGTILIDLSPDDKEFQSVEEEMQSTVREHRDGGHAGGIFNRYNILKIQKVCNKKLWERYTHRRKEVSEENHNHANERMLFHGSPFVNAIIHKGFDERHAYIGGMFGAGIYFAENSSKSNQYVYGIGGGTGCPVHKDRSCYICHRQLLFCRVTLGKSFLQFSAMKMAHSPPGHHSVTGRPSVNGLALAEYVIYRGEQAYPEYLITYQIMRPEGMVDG
Experimental: (§1) (Test Example 1) Tankyrase Inhibitory Activity Test
(§2) For each of the compounds obtained in Examples (the test target compounds), the tankyrase inhibitory activity (an inhibitory activity against tankyrase 1 (TNKS 1) and an inhibitory activity against tankyrase 2 (TNKS 2)) was evaluated by measuring the enzymatic activity of tankyrase 1 and the enzymatic activity of tankyrase 2 by the ELISA technique using self-polyADP ribosylation as an index. First, Flag-tag fusion tankyrase 1 (1,024-1,327aa, SAM+PARP) and tankyrase 2 (613-1, 116aa, ANK5+SAM+PARP) were each synthesized by a cell-free protein synthesis system and diluted with a Tris buffer (50 mM Tris-HCl (pH 8.0), 150 mM NaCl, 10% glycerol). Then, 50 μL of the diluted tankyrase 1 or tankyrase 2 was added to a plate on which the anti-FLAGM 2 monoclonal antibody was immobilized (Anti-FLAG high sensitivity M2 coated plate) (SIGMA Corporation), and was allowed to stand at 4° C. overnight. Thereafter, the plate was washed four times with a PBS buffer containing 0.1% Triton X-100 (PBST buffer).
(§3) Subsequently, the test target compound diluted with an assay buffer (50 mM Tris-HCl (pH 8.0), 4 mM MgCl2, 0.2 mM DTT) (using DMSO as a control) was added to each well of the plate and was allowed to stand at room temperature for 10 minutes. Thereafter, a biotin-labeled NAD solution (225 μM NAD, 25 μM 6-Biotin-17-NAD (Trevigen Inc.)) was added as a donor substrate and mixed with the resultant test target compound, and the reaction was allowed to proceed at 30° C. for 45 minutes. Instead of the biotin-labeled NAD solution, distilled water was added to blank wells. After the reaction, the plate was washed four times with the PBST buffer. Thereafter, HRP (horseradish peroxidase)-labeled streptavidin (Trevigen Inc.) diluted 1,000-fold with the PBS buffer was added to each well, and the reaction was allowed to proceed at room temperature for 20 minutes. After the plate was washed four times with the PBST buffer, a chemiluminescent substrate solution TACS-Sapphire (Trevigen Inc.) was added to each well and the reaction was allowed to proceed at room temperature for 20 minutes. Then, the chemiluminescence intensity was measured using a chemiluminescence measuring apparatus.
(§4) The residual enzyme activity in the presence of the test target compound was determined in accordance with the following formula. Based on the residual enzyme activity at multiple concentrations of the test target compound, an enzyme inhibition activity was calculated as a 50% inhibitory concentration (IC50 value) using data analysis software named Origin (LightStone Corp.).

[1] = tested on: human colorectal cancer cell line, COLO-320DM; assay: Cell proliferation inhibitory activity test (Celltiter-Glo Luminescent Cell Viability Assay); assay type: cell-based; details: COLO-320DM cells, 96 hours, read-out: COLO-320 DM cell proliferation inhibitory activity (GI50 class)
Experimental: (Test Example 2) Cell Proliferation Inhibitory Activity Test
The cell proliferation inhibitory activity of the compound obtained in each of Examples against human colorectal cancer cell line, COLO-320DM was evaluated by Celltiter-Glo Luminescent Cell Viability Assay (Promega Corporation, G7573). The COLO-320 DM cells were cultured in a RPMI-1640 medium (Wako Pure Chemical Industries, Ltd., 189-02025) containing 10% fetal bovine serum and 2 mM of glutamine. The cultured cells were washed with PBS and then detached with trypsin/EDTA to prepare a cell solution containing 3×10^4 cells/mL.
Next, the cell solution was seeded in a 96 well microplate (Thermo/Nunc, 136101) in an amount of 70 μL/well and was cultured overnight under conditions at 37° C. with 5% CO2. On the next day, 10 μL/well of a solution in which the test target compound (DMSO solution) was diluted with the cell culture medium (a final DMSO concentration of 1%) was added and the reaction was allowed to proceed under conditions at 37° C. with 5% CO2 for 96 hours (a 1% DMSO solution was used as a control). Subsequently, 80 μL/well of Celltiter-Glo Luminescent Cell Viability Assay reagent (Promega Corporation, G7573) was added, followed by agitation for 2 minutes with a shaker under shielding with aluminum foil. Thereafter, the resultant solution was allowed to stand for reaction at room temperature for 10 minutes.
After that, the luminescent signal was measured with a luminometer (Biotech, Synergy). The cell proliferation inhibitory activity was evaluated by obtaining a percentage of a cell proliferation volume of each compound-added group with respect to a cell proliferation volume (100%) of a control group in which no test target component solution was added, and calculating a value of compound concentration (GI50) required to reduce the remaining cell volume to 50% of the remaining cell volume of the control. […] The results are shown in Tables 120 to 123 together with the results of the tankyrase inhibition activity test.

tankyrase 1 (TNKS 1) = biological target: T2, tankyrase 1 (TNKS 1) (Homo sapiens, UniProt O95271); assay: Tankyrase inhibitory activity test (ELISA, self-polyADP ribosylation), tankyrase 1; assay type: biochemical; details: tankyrase 1, ELISA, self-polyADP ribosylation; read-out: TNKS1 inhibitory activity (IC50 class)
T2 construct: 1,024-1,327aa; made in house; host or cells: cell-free protein synthesis system
T2 sequence (O95271 1024-1327): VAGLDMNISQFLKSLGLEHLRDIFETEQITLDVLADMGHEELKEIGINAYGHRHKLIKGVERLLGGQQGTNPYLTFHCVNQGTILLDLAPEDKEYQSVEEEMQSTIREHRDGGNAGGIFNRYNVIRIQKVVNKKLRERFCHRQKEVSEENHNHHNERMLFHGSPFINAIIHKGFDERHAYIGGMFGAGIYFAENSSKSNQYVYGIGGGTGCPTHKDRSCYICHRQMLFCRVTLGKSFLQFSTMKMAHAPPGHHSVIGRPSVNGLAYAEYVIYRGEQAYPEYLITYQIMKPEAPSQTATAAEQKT
Experimental: as §1, §2, §3, §4

Row | Structure (SMILES) | IC50 (tankyrase 2 (TNKS 2)) | GI50 [1] | IC50 (tankyrase 1 (TNKS 1))
1 | CN1CCCc2c1nc(N1CCC3(CC1)CN(CCO)c1cc(F)cc(F)c13)[nH]c2=O [Example 338, 2-[4,6-difluoro-1-(2-hydroxyethyl)spiro [indoline-3,4′-piperidin]-1′-yl]-8-methyl-5,6,7,8-tetrahydro-pyrido [2,3-d] pyrimidin-4(3H)-one] | < 20 nM | 100 to 600 nM | 20 to 200 nM
2 | CN1CCCc2c1nc(N1CCC3(CC1)C(=O)N(C)c1cc(F)cc(F)c13)[nH]c2=O [Example 339, 4,6-difluoro-1-methyl-1′-(8-methyl-4-oxo-3,4,5,6,7,8-hexahydro-pyrido[2,3-d]pyrimidin-2-yl)spiro [indoline-3,4′-piperidin]-2-one] | < 20 nM | 100 to 600 nM | < 20 nM
3 | CN1CCCc2c1nc(N1CCC3(CC1)C(=O)N(CCO)c1cc(F)cc(F)c13)[nH]c2=O [Example 340, 4,6-difluoro-1-(2-hydroxyethyl)-1′-(8-methyl-4-oxo-3,4,5,6,7,8-hexahydro-pyrido[2,3-d]pyrimidin-2-yl)spiro [indoline-3,4′-piperidin]-2-one] | < 20 nM | 100 to 600 nM | < 20 nM
4 | O=c1[nH]c(N2CCC3(CC2)CN(Cc2ccccc2F)c2cc(F)cc(F)c23)nc2c1CCCC2 [Example 341, 2-[4,6-difluoro-1-(2-fluorobenzyl)spiro [indoline-3,4′-piperidin]-1′-yl]-5,6,7,8-tetrahy-droquinazolin-4(3H)-one] | 20 to 200 nM | 600 to 1000 nM | 20 to 200 nM
5 | O=c1[nH]c(N2CCC3(CC2)CN(Cc2cccc(F)c2)c2cc(F)cc(F)c23)nc2c1CCCC2 [Example 342, 2-[4,6-difluoro-1-(3-fluorobenzyl)spiro [indoline-3,4′-piperidin]-1′-yl]-5,6,7,8-tetrahy-droquinazolin-4(3H)-one] | < 20 nM | 600 to 1000 nM | 20 to 200 nM
6 | O=c1[nH]c(N2CCC3(CC2)CN(Cc2ccc(Cl)nc2)c2cc(F)cc(F)c23)nc2c1CCCC2 [Example 344, 2-{1-[(6-chloropyridin-3-yl)methyl]-4,6-di-fluorospiro[indoline-3,4′-piperidin]-1′-yl]-5,6,7,8-tetrahydroquin-azolin-4(3H)-one] | < 20 nM | 100 to 600 nM | < 20 nM
7 | Cn1ccc2c(=O)[nH]c(N3CCC4(CC3)CN(Cc3cccnc3)c3cc(F)cc(F)c34)nc21 [Example 347, 2-[4,6-difluoro-1-(pyridin-3-ylmethyl)spiro [indoline-3,4′-piperidine]-1′-yl]-7-methyl-3,7-dihydro-4H-pyrrolo [2,3-d]pyrimidin-4-one] | 20 to 200 nM | 600 to 1000 nM | 20 to 200 nM
8 | CN1CCCc2c1nc(N1CCC3(CC1)CN(Cc1cccnc1)c1cc(F)cc(F)c13)[nH]c2=O [Example 351, 2-[4,6-difluoro-1-(pyridin-3-ylmethyl)spiro [indoline-3,4′-piperi-dine]-1′-yl]-8-methyl-5,6,7,8-tetrahydro pyrido [2,3-d]pyrimidin-4(3H)-one] | < 20 nM | 100 to 600 nM | 20 to 200 nM
9 | CN1CCCc2c1nc(N1CCC3(CC1)C(=O)N(C)c1cc(O)cc(F)c13)[nH]c2=O [Example 354, 4-fluoro-6-hydroxy-1-methyl-1′-(8-methyl-4-oxo-3,4,5,6,7,8-hexahydropyrido [2,3-d]pyrimidin-2-yl) spiro[indoline-3,4′-piperidin]-2-one] | < 20 nM | 100 to 600 nM | < 20 nM
10 | CN1CCCc2c1nc(N1CCC3(CC1)C(=O)N(C)c1cc(OCCO)cc(F)c13)[nH]c2=O [Example 356, 4-fluoro-6-(2-hydroxy-ethoxy)-1-methyl-1′-(8-methyl-4-oxo-3,4,5,6,7,8-hexahydro-pyrido[2,3-d]pyrimidin-2-yl) spiro [indoline-3,4′-piperidin]-2-one] | < 20 nM | 100 to 600 nM | < 20 nM
11 | CN(C)CCOc1cc(F)c2c(c1)N(C)C(=O)C21CCN(c2nc3c(c(=O)[nH]2)CCCN3C)CC1 [Example 357, 6-[2-(dimethylamino)ethoxy]-4-fluoro-1-methyl-1′-(8-methyl-4-oxo-3,4,5,6,7,8-hexa-hydropyrido [2,3-d]pyrimidin-2-yl) spiro[indoline-3,4′-piperidin]-2-one] | < 20 nM | 600 to 1000 nM | < 20 nM
12 | CN1CCCc2c1nc(N1CCC3(CC1)C(=O)N(C)c1cc(OCCN4CCOCC4)cc(F)c13)[nH]c2=O [Example 360, 4-fluoro-1-methyl-1′-(8-methyl-4-oxo-3,4,5,6,7,8-hexahydropy-rido[2,3-d]pyrimidin-2-yl)-6-(2-morpho-linoethoxy) spiro [indoline-3,4′-piperidin]-2-one] | < 20 nM | 100 to 600 nM | < 20 nM
13 | CN1CCCc2c1nc(N1CCC3(CC1)C(=O)N(C)c1cc(OCCN4CCS(=O)(=O)CC4)cc(F)c13)[nH]c2=O [Example 361, 6-[2-(1,1-dioxidothio-morpholino)ethoxy]-4-fluoro-1-methyl-1′-(8-methyl-4-oxo-3,4,5,6,7,8-hexahydropy-rido[2,3-d]pyrimidin-2-yl)spiro [indoline-3,4′-piperidin]-2-one] | < 20 nM | 600 to 1000 nM | < 20 nM
14 | CN1CCN(CCOc2cc(F)c3c(c2)N(C)C(=O)C32CCN(c3nc4c(c(=O)[nH]3)CCCN4C)CC2)CC1 [Example 362, 4-fluoro-1-methyl-1′-(8-methyl-4-oxo-3,4,5,6,7,8-hexahydropy-rido[2,3-d]pyrimidin-2-yl)-6-[2-(4-methyl-piperazin-1-yl)ethoxy] spiro[indoline-3,4′-piperidin]-2-one] | < 20 nM | 100 to 600 nM | < 20 nM
15 | CN1CCCc2c1nc(N1CCC3(CC1)C(=O)N(C)c1cc(OCCCN4CCOCC4)cc(F)c13)[nH]c2=O [Example 365, 4-fluoro-1-methyl-1′-(8-methyl-4-oxo-3,4,5,6,7,8-hexahydro-pyrido[2,3-d]pyrimidin-2-yl)-6-(3-morpholino-propoxy) spiro[indoline-3,4′-piperidin]-2-one] | < 20 nM | 600 to 1000 nM | < 20 nM
16 | COCCOc1cc(F)c2c(c1)N(C)C(=O)C21CCN(c2nc3c(c(=O)[nH]2)CCCN3C)CC1 [Example 366, 4-fluoro-6-(2-methoxy)-1-methyl-1′-(8-methyl-4-oxo-3,4,5,6,7,8-hexahydropy-rido[2,3-d]pyrimidin-2-yl)spiro [indoline-3,4′-piperidin]-2-one] | < 20 nM | 100 to 600 nM | < 20 nM
17 | CN1CCCc2c1nc(N1CCC3(CC1)C(=O)N(C)c1cc(OCCCN4CCCC4)cc(F)c13)[nH]c2=O [Example 367, 4-fluoro-1-methyl-1′-(8-methyl-4-oxo-3,4,5,6,7,8-hexahydropy-rido[2,3-d]pyrimidin-2-yl)-6-[3-(pyrrolidin-1-yl)propoxy] spiro[indoline-3,4′-piperidin]-2-one] | < 20 nM | 100 to 600 nM | < 20 nM
